# Source: patent publication US20040110637A1, “Method of safening crops using isoxazoline carboxylates” (priority 2001, published 2004)
# Columns and labels:
# Assay type in all cases: in vivo
# [1] = test system: ZEAMA = Zea mays (maize), variety Lorenzo; experiment: Corn seed treatment with safener, then pre-emergence herbicide H1 (isoxaflutole); visual crop injury; conditions: safener seed treatment 0.1 g a.i./kg seed + Herbicide H1 pre-emergent 100 g a.i./ha
# Protocol: (§1) The number of crop seeds that would be needed for each safener rate was calculated. Based on the weight of 100 seeds, sufficient seeds were weighed into screw top glass bottles approximately twice the volume of the seeds.
# (§2) The prospective safeners were formulated as wettable powders or water dispersible granules. These formulations were weighed out so that the required rates (g a.i./kg seed) would be obtained. The samples were added to the seeds in the bottles and then sufficient water added to produce a slurry. The bottles were capped and then placed in an overhead shaker (set at medium speed for up to 1 hour) so that the seeds were evenly coated with the slurry. The bottles were uncapped and the seeds used in the pre- or post-emergence tests as described in sections 1.2 and 1.3.
# (§3) As an alternative seed treatment method, active ingredient of the prospective safeners was weighed and dissolved in a solvent (e.g. acetone) and added to the seeds in the bottles. […]
# (§4) In tests in which larger quantities of seeds required treatment, the prospective safeners, either as formulated samples in water or as active ingredient dissolved in solvent were applied to seeds using a mini-rotostat apparatus. […]
# (§5) Corn seeds were treated according to example 1.1. […] After 3 to 4 weeks the results were visually scored in comparison with control plants (without seed treatment and herbicide treatment).
# [2] = test system: TRZAS, Triticum aestivum (wheat), variety Ralle; experiment: Wheat seed treatment with safener, then pre-emergence herbicide H2 (metolachlor); visual crop injury; conditions: for Safener effect in % reduction in crop injury: TRZAS
# Protocol: as §1, §2
# (§6) As an alternative seed treatment method, active ingredient of the prospective safeners was weighed and dissolved in a solvent (e.g. acetone) and added to the seeds in the bottles. The solvent type and volume was selected based on prior experience so that it would have no negative impact on seed germination or subsequent plant growth. After shaking for up to 1 hour (overhead shaker) the seeds were spread out on paper in a fume cabinet to allow the remaining solvent to evaporate. The seeds were then used in the pre- or post-emergence tests as described in sections 1.2 and 1.3.
# (§7) In tests in which larger quantities of seeds required treatment, the prospective safeners, either as formulated samples in water or as active ingredient dissolved in solvent were applied to seeds using a mini-rotostat apparatus. The seeds were allowed to dry for a short time before being used in the pre- or post-emergence tests as described in sections 1.2 and 1.3.
# (§8) The safener treated seeds and untreated comparison seeds were sown into 7 to 13 cm round pots in a sandy loam soil and covered with approximately 0.5 to 1 cm of a 1 to 1 mix of sandy loam soil and sand. Herbicidal substances, as liquid (e.g. Emulsifiable concentrates) or dry (e.g. wettable powder) formulations, were diluted to the required concentrations in deionised water and applied to the soil surface using a track sprayer calibrated to deliver 300 to 800 litres of spray solution per hectare.
# (§9) The pots were placed under good growing conditions in a glasshouse and a visual assessment of herbicidal effects made after 3 to 4 weeks after herbicide application. Assessment was on a percentage basis in comparison with untreated control plants (0%=no injury, 100%=complete kill).
# Wheat or barley seeds were treated according to example 1.1. After sowing the herbicide was applied pre-emergent on the soil surface as described in example 1.2. After 3 to 4 weeks the results were visually scored in comparison with control plants (without seed treatment and herbicide treatment).
# [3] = test system: HORVS = Hordeum vulgare (barley), variety Boroness; experiment: Barley seed treatment with safener, then pre-emergence herbicide H2 (metolachlor); visual crop injury; conditions: for Safener effect in % reduction in crop injury: HORVS
# Protocol: as §1, §2, §6, §7, §8, §9
# Wheat or barley seeds were treated according to example 1.1. […] After 3 to 4 weeks the results were visually scored in comparison with control plants (without seed treatment and herbicide treatment).
# corn (variety Dea) = experiment: Corn seed treatment with safener, then post-emergence herbicide H3 (diflufenzopyr + dicamba sodium salts); visual crop injury
# Protocol: as §1, §2, §3, §4, §5
# [4] = safener seed treatment 0.5 g a.i./kg seed + Herbicide H2 pre-emergent 700 g a.i./ha
# [5] = safener seed treatment 1 g a.i./kg seed + Herbicide H2 pre-emergent 700 g a.i./ha
# [6] = safener seed treatment 2 g a.i./kg seed + Herbicide H2 pre-emergent 700 g a.i./ha
smiles,measurement,setting,value
CCOC(=O)C1=NOC(c2ccccc2)(c2ccccc2)C1 [(lb)],Safener effect in % reduction in crop injury,[1]; ZEAMA,71%
same,% injury to ZEAMA,[1]; after 3 to 4 weeks,10%
same,% injury to TRZAS,[2]; [4],10%
same,Safener effect in % reduction in crop injury,[2]; [4],86%
same,% injury to TRZAS,[2]; [5],20%
same,Safener effect in % reduction in crop injury,[2]; [5],73%
same,% injury to TRZAS,[2]; [6],15%
same,Safener effect in % reduction in crop injury,[2]; [6],79%
same,% injury to HORVS,[3]; [4],0%
same,Safener effect in % reduction in crop injury,[3]; [4],100%
same,% injury to HORVS,[3]; [5],0%
same,Safener effect in % reduction in crop injury,[3]; [5],100%
same,% injury to corn (variety Dea),corn (variety Dea); safener seed treatment 0.01 g a.i./kg seed + Herbicide H3 500 g a.i./ha (head: pre-emergent; text: post-emergent at 2 to 3-leaf stage),10%
same,Safener effect in % reduction in crop injury,"corn (variety Dea); safener seed treatment 0.01 g a.i./kg seed + Herbicide H3 500 g a.i./ha, corn variety Dea",57%
